Experimental data as given in patent US6410600B1, “Azine used as fungicides” (Bayer Aktiengesellschaft, priority 1998, dated 2002).

Experiments:
[1] = logP determination by HPLC (EEC direction 79/831 Annex V. A8); format: physicochemical; details: eluent not stated
[2] = tested on: Venturia inaequalis; assay: Venturia Test (apple)/Protective; format: in vivo; details: protective, application rate 10 g/ha, evaluation 12 days after inoculation
Method: Venturia Test (apple)/Protective
(§1) To produce a suitable preparation of active compound, 1 part by weight of active compound is mixed with the stated amounts of solvent and emulsifier, and the concentrate is diluted with water to the desired concentration.
To test for protective activity, young plants are sprayed with the preparation of active compound at the stated application rate. After the spray coating has dried on, the plants are inoculated with an aqueous conidia suspension of the causative organism of apple scab Venturia inaequalis and then remain in an incubation cabin at approximately 20° C. and 100% relative atmospheric humidity for 1 day.
The plants are then placed in a greenhouse at approximately 21° C. and a relative atmospheric humidity of approximately 90%.
Evaluation is carried out 12 days after the inoculation. 0% means an efficacy which corresponds to that of the control, whereas an efficacy of 100% means that no infection is observed.

[3] = tested on: Plasmopara viticola; assay: Plasmopara Test (grapevine)/Protective; format: in vivo; details: protective, application rate 100 g/ha, evaluation 6 days after inoculation
Method: Plasmopara Test (grapevine)/Protective
as §1
To test for protective activity, young plants are sprayed with the preparation of active compound at the stated application rate. After the spray coating has dried on, the plants are inoculated with an aqueous spore suspension of Plasmopara viticola and then remain in an incubation cabin at approximately 20° C. and 100% relative atmospheric humidity for 1 day. The plants are then placed in a greenhouse at approximately 21° C. and approximately 90% relative atmospheric humidity. The plants are then moistened and placed in an incubation cabin for 1 day.
Evaluation is carried out 6 days after the inoculation. 0% means an efficacy which corresponds to that of the control, whereas an efficacy of 100% means that no infection is observed.

[4] = tested on: Sphaerotheca fuliginea; assay: Sphaerotheca Test (cucumber)/Protective; format: in vivo; details: protective, application rate 100 g/ha, evaluation 10 days after inoculation
Method: Sphaerotheca Test (cucumber)/Protective
as §1
To test for protective activity, young plants are sprayed with the preparation of active compound at the stated application rate. After the spray coating has dried on, the plants are inoculated with an aqueous spore suspension of Sphaerotheca fuliginea. The plants are then placed in a greenhouse at approximately 23° C. and a relative atmospheric humidity of approximately 70%.
Evaluation is carried out 10 days after the inoculation. 0% means an efficacy which corresponds to that of the control, whereas an efficacy of 100% means that no infection is observed.

SMILES	chromatographic logP [1]	efficacy [2]	efficacy [3]	efficacy [4]
CO/N=C(\C)C(C)=NN [3-hydrazono-butan-2-one O-methyl oxime]	0.97			
COC(=O)/C=C(/OC)c1ccccc1C=NN=C(C)c1cccc(C(F)(F)F)c1 [Example 1, methyl 3-methoxy-3-(2-{[1-(3-trifluoromethylphenyl)-ethylidene]-hydrazonomethyl}-phenyl)-acrylate]	4.4	more than 90%	more than 80%	more than 80%
